Assay results taken from patent publication US12194007B2, “Pharmaceutical composition for preventing or treating cancer, comprising gossypol, phenformin, and anticancer agent” (National Cancer Center, priority 2018, dated 2025).
Like-named read-outs stand apart in the source and are kept apart here.

Key:
[1] = system: SK-OV-3 or OVCAR3 cell line; test: SRB cell proliferation assay, ovarian cancer cell lines; format: cell-based; conditions: for degree of cell proliferation with respect to the untreated control: gossypol 5 μM, phenformin 100 μM, single or double (Table 16, FIG. 6A)
[2] = system: BT549 cell line or MB231 cell line; test: SRB cell proliferation assay, breast cancer cell lines; format: cell-based; conditions: for synergistic effect of anticancer action when mixed with gossypol and phenformin: breast cancer, named agent + gossypol 5 μM + phenformin 100 μM (Tables 13-15); for degree of cell proliferation with respect to the untreated control: gossypol 5 μM, phenformin 100 μM, third agent per Table 13 paclitaxel 50 nM, single, double or triple (FIG. 5A)
[3] = system: SNU638 cells xenograft tumor; test: Gastric cancer mouse model, tumor growth; format: in vivo, Balb/c-nu mice; conditions: gossypol 80 mg/kg, phenformin 100 mg/kg, irinotecan 30 mg/kg, single, double or triple; vs solvent control (Table 27, FIGS. 12A, 12B)
Experimental: First, in order to make a lung cancer mouse model, 6 to 8 week old Balb/c-nu mice (Central Lab. Animal, Highland Heights, KY, USA) were prepared. In addition, 7.5×10^6 A549 cell line was cultured, and was injected subcutaneously to the prepared mice with a 1 ml syringe. Mice were reared for 1 week and divided into 4 groups of 8 mice each, and these were used as a control group or an experimental group as defined in [Table 24] and [Table 25]. The solvent or drug was orally administered to the mice of the solvent control group, the double drug treatment group, and the triple drug treatment group once a day, 6 days per week, and while administering intravenously irinotecan to the mice of the single treatment group with irinotecan once a day, 1 day per week, the mice were reared in the same environment for a total of 49 days. While breeding, the average was obtained by checking the weight and size of the tumor of the mouse group every 7 days. After injection of lung cancer cells, the initial tumor size was specified using a calliper. The tumor volume was calculated according to the following [Equation 1].
Specifically, the mouse model with the gastric cancer was prepared by the same method as the method of preparing the lung cancer mouse model in [Example 9], except that the mouse model with the gastric cancer was prepared by xenografting SNU638 cells (1.5×10^7). Then, the prepared mouse model with the gastric cancer was used as a control group or an experimental group as defined in the following [Table 27].

[4] = system: HT29 cell line or Colo205 cell line; test: SRB cell proliferation assay, colorectal cancer cell lines; format: cell-based; conditions: for degree of cell proliferation with respect to the untreated control: gossypol 2.5 μM, phenformin 50 μM, irinotecan 1 μM, single, double or triple (Table 7, FIG. 3A)
[5] = system: PC3 cell line or DU145 cell line; test: SRB cell proliferation assay, prostate cancer cell lines; format: cell-based
[6] = system: A549 cell line or H522 cell line; test: SRB cell proliferation assay, non-small cell lung cancer cell lines; format: cell-based; conditions: irinotecan 1 μM; for degree of cell proliferation with respect to the untreated control: gossypol 5 μM, phenformin 100 μM, single, double or triple (Table 10, FIG. 4A)
[7] = system: A549 cell line xenograft tumor; test: Lung cancer mouse model, tumor growth; format: in vivo, Balb/c-nu mice
Experimental: First, in order to make a lung cancer mouse model, 6 to 8 week old Balb/c-nu mice (Central Lab. Animal, Highland Heights, KY, USA) were prepared. In addition, 7.5×10^6 A549 cell line was cultured, and was injected subcutaneously to the prepared mice with a 1 ml syringe. Mice were reared for 1 week and divided into 4 groups of 8 mice each, and these were used as a control group or an experimental group as defined in [Table 24] and [Table 25]. […] While breeding, the average was obtained by checking the weight and size of the tumor of the mouse group every 7 days. After injection of lung cancer cells, the initial tumor size was specified using a calliper. The tumor volume was calculated according to the following [Equation 1].

SNU449 or Huh7 cell line = test: SRB cell proliferation assay, liver cancer cell lines; format: cell-based; conditions: gossypol 5 μM, phenformin 100 μM, cisplatin 1 μM, single or double (Table 22, FIG. 8A)
[8] = system: ACHN cell line or CAKI-1 cell line; test: SRB cell proliferation assay, kidney cancer cell lines; format: cell-based; conditions: gossypol 2.5 μM, phenformin 100 μM, sorafenib 10 μM, single, double or triple (Table 1, FIG. 1A)
Experimental: Specifically, while culturing the ACHN cell line or CAKI-1 cell line, which is a kidney cancer cell line, each cell was inoculated into a 96-well plate at a density of 5,000 to 20,000 cells/well depending on the amplification phase of the culture time. After inoculation, the anticancer agent mixtures of the following [Table 1] to [Table 3] were added to each well and cultured in a CO2 incubator for 24 hours. The anticancer agent mixture was prepared so that the final concentration of each anticancer agent can be appropriately added by mixing each at a stock concentration and then adding 100 μl each. After treatment with the anticancer agent, cells were further cultured for 48 hours, and then 10% (w/v) trichloroacetic acid (TCA) was added to each well and incubated at 4° C. for 60 minutes to fix the cells. The supernatant liquid other than the fixed cells was removed, the plate was washed 5 times with tap water, and then dried in air. After drying, 100 μl of 0.4% (w/v) sulforhodamine B buffer solution containing 1% acetic acid was added to each well, and left at room temperature for 5 minutes to stain the cells. After staining the cells, the cells were washed 5 times with 1% acetic acid to remove unstained dye and then dried in air. The colored dye was immobilized with 10 mM trizma base, and then absorbance was measured at 515 nm using a plate reader. As an untreated control, the degree of cell proliferation of a cell line cultured without treatment with an anticancer agent was measured, and the degree of cell proliferation of each experimental group with respect to the untreated control was calculated as a relative ratio and expressed as a percentage (%).

[9] = system: UACC62 cell line or an A375 cell line; test: SRB cell proliferation assay, melanoma cell lines; format: cell-based; conditions: gossypol 5 μM, phenformin 100 μM, vemurafenib 0.5 μM, single, double or triple (Table 4, FIG. 2A)
[10] = system: PC3 cells xenograft tumor; test: Prostate cancer mouse model, tumor growth; format: in vivo, Balb/c-nu mice; conditions: gossypol 80 mg/kg, phenformin 100 mg/kg, doxorubicin 5 mg/kg, single, double or triple (Table 28, FIGS. 13A, 13B)
[11] = gossypol 5 μM, phenformin 100 μM, doxorubicin 1 nM, single, double or triple (Table 19, FIG. 7A)

How did the “synergistic effect of anticancer action when mixed with gossypol and phenformin” value (shortened to “synergistic effect of anticancer action”) ([1]; ovarian cancer, cisplatin 1 nM, paclitaxel 50 nM or irinotecan 0.5 μM + gossypol 5 μM + phenformin 100 μM) turn out when CCc1c2c(nc3ccc(OC(=O)N4CCC(N5CCCCC5)CC4)cc13)-c1cc3c(c(=O)n1C2)COC(=O)[C@]3(O)CC [irinotecan] was run?
Its value is “not exhibited”.

What about the “effect of inhibiting cell proliferation in the triple drug treatment group” value ([1]; paclitaxel 50 nM or irinotecan 0.5 μM mixed with gossypol 5 μM and phenformin 100 μM (Tables 17-18, FIGS. 6B, 6C)) of the same compound?
Its value is “level similar to that of the double drug treatment group”.

What about the “synergistic effect of anticancer action” value [2] of the same compound?
Its value is “can exhibit a synergistic effect”.

What about the “degree of cell proliferation with respect to the untreated control” value (“degree of cell proliferation” below) [2] of the same compound?
Its value is “proliferation of cancer cells could be inhibited at a significant level”.

And the “level of tumor growth” value [3]?
The value was “significantly decreased the level of tumor growth”.

What about the “synergistic effect of anticancer action” value ([4]; colon cancer, irinotecan 1 μM (phenformin 50 μM) or cisplatin/capecitabine 10 μM (phenformin 75 μM) + gossypol 2.5 μM) of the same compound?
Its value is “can exhibit a synergistic effect”.

What about the “degree of cell proliferation” value [4] of the same compound?
Its value is “proliferation of cancer cells could be inhibited at a significant level”.

What about the “effect of inhibiting cell proliferation in the triple drug treatment group” value ([5]; docetaxel 50 nM or irinotecan 0.5 μM mixed with gossypol 5 μM and phenformin 100 μM (Tables 20-21, FIGS. 7B, 7C)) of the same compound?
Its value is “level similar to that of the double drug treatment group”.

And the “degree of cell proliferation” value [6]?
The value was “proliferation of cancer cells could be inhibited at a significant level”.

And the “synergistic effect of anticancer action” value ([6]; lung cancer (NSCLC), cisplatin 20 μM or 5-FU 5 μM + gossypol 5 μM + phenformin 100 μM)?
Its value is “can exhibit a synergistic effect”.

Which “anticancer synergistic effect of the triple drug administration” value ([7]; gemcitabine 40 mg/kg with gossypol 80 mg/kg and phenformin 100 mg/kg (FIG. 10)) does the source give for Nc1ccn([C@@H]2O[C@H](CO)[C@@H](O)C2(F)F)c(=O)n1 [gemcitabine] here?
Its value is “not observed”.

What about the “tumor growth (change in tumor size)” value ([7]; gemcitabine experiment: gossypol 80 mg/kg, phenformin 100 mg/kg, gemcitabine 40 mg/kg, single or double (Table 25, FIG. 10)) of the same compound?
The value was “tumor growth at a level similar to that of the solvent administration group”.

Which “degree of cell proliferation” value ([1]; cisplatin 1 nM) does the source give for Cc1cc2c(C(C)C)c(O)c(O)c(C=O)c2c(O)c1-c1c(C)cc2c(C(C)C)c(O)c(O)c(C=O)c2c1O [gossypol] here?
The value was “proliferation of cancer cells could be inhibited at a significant level”.

What about the “degree of cell proliferation” value (SNU449 or Huh7 cell line) of the same compound?
Its value is “proliferation of cancer cells could be inhibited at a significant level”.

What about the “degree of cell proliferation” value [2] of the same compound?
Its value is “proliferation of cancer cells could be inhibited at a significant level”.

What about the “level of tumor growth” value [3] of the same compound?
The value was “a level similar to levels of tumor growth”.

What about the “degree of cell proliferation” value [8] of the same compound?
The value was “proliferation of cancer cells could be inhibited”.

And the “degree of cell proliferation” value [4]?
Its value is “proliferation of cancer cells could be inhibited at a significant level”.

And the “degree of cell proliferation” value [9]?
Its value is “proliferation of cancer cells could be inhibited at a significant level”.

What about the “degree of cell proliferation” value [5] of the same compound?
Its value is “proliferation of cancer cells could be inhibited at a significant level”.

And the “degree of cell proliferation” value [6]?
The value was “proliferation of cancer cells could be inhibited at a significant level”.

Which results are given for NC(N)=N/C(N)=N/CCc1ccccc1 [phenformin]?
degree of cell proliferation with respect to the untreated control ([1]; cisplatin 1 nM): proliferation of cancer cells could be inhibited at a significant level; degree of cell proliferation with respect to the untreated control (SNU449 or Huh7 cell line): proliferation of cancer cells could be inhibited at a significant level; degree of cell proliferation with respect to the untreated control [2]: proliferation of cancer cells could be inhibited at a significant level; level of tumor growth [3]: a level similar to levels of tumor growth; degree of cell proliferation with respect to the untreated control [8]: proliferation of cancer cells could be inhibited; degree of cell proliferation with respect to the untreated control [4]: proliferation of cancer cells could be inhibited at a significant level; degree of cell proliferation with respect to the untreated control [9]: proliferation of cancer cells could be inhibited at a significant level; degree of cell proliferation with respect to the untreated control [5, 11]: proliferation of cancer cells could be inhibited at a significant level; degree of cell proliferation with respect to the untreated control [6]: proliferation of cancer cells could be inhibited at a significant level

What does the source list for COc1cccc2c1C(=O)c1c(O)c3c(c(O)c1C2=O)C[C@@](O)(C(=O)CO)C[C@@H]3O[C@H]1C[C@H](N)[C@H](O)[C@H](C)O1 [doxorubicin]?
synergistic effect of anticancer action when mixed with gossypol and phenformin [2]: not exhibited; effect of inhibiting cell proliferation in the triple drug treatment group ([2]; cisplatin 1 μM or doxorubicin 1 μM mixed with gossypol 5 μM and phenformin 100 μM (Tables 14-15, FIGS. 5B, 5C)): level similar to that of the double drug treatment group; tumor growth level [10]: significantly inhibited tumor growth compared to the solvent control group; degree of cell proliferation with respect to the untreated control [5, 11]: proliferation of cancer cells could be inhibited at a significant level
